From patent US20260297060A1, “COMPOUNDS FOR THE DEGRADATION OF MUTANT BRAF” (C4 THERAPEUTICS, INC., priority 2023, published 2026)
Where two headings read alike, the source gives them in different places.

Legend:
[1] = system: A375 human melanoma xenografts; assay: Example 8 efficacy study in A375 human melanoma xenografts (tumor volume, T/C, TGI); format: in vivo, BALB/c nude mice; conditions: 35 mg/kg, p.o., QD × 21 days
Experimental: For efficacy study, agents were tested in the A375 human melanoma xenografts model. Compound 8, Compound 26, and Compound 38 were administered to BALB/c nude mice bearing A375 xenografts from day 0 and dosed p.o. twice per day (BID). Compound 8 and Compound 26 were dosed at 10 mg/kg for 21 days. Compound 38 was dosed at 10 mg/kg for 10 days. The known BRAF inhibitor encorafenib was used as a positive control. encorafenib was administered from day 1 and dosed p.o. daily (QD) for 21 days and dosed at 35 mg/kg.
The A375 tumor cells were maintained in vitro in DMEM medium supplemented with […] and 1% Penicillin-Streptomycin at 37° C. in an atmosphere of 5% CO2 in air. The tumor cells were routinely subcultured twice weekly. The cells growing in an exponential growth phase were harvested and counted for tumor inoculation.
Each mouse was inoculated subcutaneously at the right flank with A375 cells (5×10^6) in 0.2 mL of PBS supplemented with Matrigel (PBS:Matrigel=1:1) for tumor development. Animals were grouped for treatment 16 days after tumor inoculation when the average tumor volume reached 234 mm^3 for efficacy study and 382 mm^3 for PKPD study. The test articles administration and the animal numbers in each group are shown in the above experimental tables.
Prior to the onset of drug treatment, mice were measured for tumor size in two dimensions using a caliper, and the tumor volume (mm^3) was calculated using formula V=0.5 a×b^2 where a and b are the long and short diameters of the tumor in mm, respectively. Mice were randomized into different treatment groups based on the tumor volume.
The major endpoint was to see if the tumor growth could be delayed or mice could be cured. The tumor size was then used for calculations of T/C value. The T/C value (in percent) is an indication of antitumor effectiveness; T and C are the mean volumes of the treated and control groups, respectively on specified day.
TGI was calculated for each group using the formula: TGI (%)=[1−(Ti−T0)/(Ci−C0)]×100; Ti is the average tumor volume of a treatment group on a given day, T0 is the average tumor volume of the treatment group on the day of treatment start, Ci is the average tumor volume of the vehicle control group on the same day with Ti, and C0 is the average tumor volume of the vehicle group on the day of treatment start.

[2] = Example 8 pharmacokinetics assay for PKPD study (plasma, tumor, liver); format: in vivo, BALB/c nude mice; conditions: mouse, po, 35 mg/kg, p.o., single dose
Experimental: For the PK and PD study, agents were administered to BALB/c nude mice bearing A375 human melanoma xenografts tumors. encorafenib, Compound 8, Compound 26, Compound 38, and Compound 39 were dosed p.o. once on day 1. Encorafenib was dosed at 35 mg/kg, Compound 8, Compound 26, Compound 38, and Compound 39 were dosed at 10 mg/kg. This study was non-GLP.
The plasma samples were collected at predetermined time points for PK analysis. For non-termination plasma collection, blood samples were collected into the 1.5 mL Eppendorf tubes containing 3 μL of 0.5 M EDTA-K2. For termination plasma collection, the mice were euthanized at predetermined time points post the treatment and the blood samples were collected into the 1.5 mL Eppendorf tubes containing 15 μL of 0.5 M EDTA-K2. And then the anticoagulant blood samples were centrifuged at 2,500 g at 4° C. for 15 minutes. The plasma samples were separated into 2 aliquots. The 1st was used for PK analysis, and the 2nd served as backup. The samples were stored at −80° C. before bioanalysis.
The tumor samples were collected at predetermined time points for PK and WB analysis. The tumor was dissected out and split into 3 parts. The 1st part was used for PK analysis, the 2nd part was used for WB analysis and the last one served as backup for study. The samples were transferred into pre-labeled tubes and quickly froze in liquid nitrogen within 2 minutes after dissection. The samples were stored at −80° C. before bioanalysis.
Liver samples were collected at predetermined time points for PK analysis. The left lobe of the liver was dissected out and split into 2 parts. The 1st part was used for PK analysis and the 2nd part served as the backup for the study. The samples were transferred into pre-labeled tubes and quickly froze in liquid nitrogen within 2 minutes after dissection. The samples were stored at −80° C. before bioanalysis.
The harvested plasma and liver samples were processed for pharmacokinetics analysis by LC-MS/MS with a concentration range of 0.200~200 ng/mL for encorafenib in plasma and liver homogenate, and 0.100-100 ng/ml in tumor homogenate, 1.00-1000 ng/mL for Compound 8 in plasma and 0.500~500 ng/ml in tumor and liver homogenate, 50.0~50,000 ng/mL for Compound 26 and Compound 38 in plasma, 5.0~5000 ng/ml in liver and 2.00~2000 ng/ml in tumor homogenate, 1.00-1000 ng/mL for Compound 39 in plasma and 0.500~500 ng/mL in liver and tumor homogenate.

[3] = liver, read-out: Concentration in Liver (mean ± SEM)
[4] = plasma, read-out: Concentration in Plasma (mean ± SEM)
[5] = tumor, read-out: Concentration in Tumor (mean ± SEM)

COC(=O)N[C@@H](C)CNc1nccc(-c2cn(C(C)C)nc2-c2cc(Cl)cc(NS(C)(=O)=O)c2F)n1 [Encorafenib, encorafenib, reference compound]
T/C ([1]; PG-D21): 14.94%
TGI ([1]; PG-D21): 98.67%
Tumor Size on PG-D21 (Mean ± SEM) ([1]; PG-D21): 254 ± 19 mm^3
Tumor Volume (mean ± SEM) ([1]; day 0): 234 ± 6 mm^3
Tumor Volume (mean ± SEM) ([1]; day 3): 329 ± 17 mm^3
Tumor Volume (mean ± SEM) ([1]; day 6): 347 ± 21 mm^3
Tumor Volume (mean ± SEM) ([1]; day 9): 251 ± 20 mm^3
Tumor Volume (mean ± SEM) ([1]; day 13): 194 ± 16 mm^3
Tumor Volume (mean ± SEM) ([1]; day 17): 194 ± 15 mm^3
Tumor Volume (mean ± SEM) ([1]; day 21): 254 ± 19 mm^3
concentration at 6 h [2, 3]: 362 ± 231 ng/g
concentration at 12 h [2, 3]: 16 ± 5.3 ng/g
concentration at 1 h [2, 4]: 5510 ± 1700 ng/mL
concentration at 6 h [2, 4]: 585 ± 446 ng/mL
concentration at 12 h [2, 4]: 11.3 ± 8.5 ng/mL
concentration at 24 h ([2]; plasma, 24 h, read-out: Concentration in Plasma (mean ± SEM)): 0.368 ± 0.082 ng/mL
concentration at 1 h [2, 5]: 1350 ± 391 ng/g
concentration at 6 h [2, 5]: 139 ± 76.2 ng/g
concentration at 12 h [2, 5]: 16.1 ± 10.9 ng/g
